Measured values published in patent US11167015B2, “Arginine and its use as a T cell modulator” (INSTITUTE FOR RESEARCH IN BIOMEDICINE, priority 2016, dated 2021).

Legend:
activated (96 h) T cells = test: Measurements of oxygen consumption rate (Seahorse); type: cell-based, human; conditions: medium supplemented with 3 mM L-arginine, 96 h activated
Experimental: Measurements were performed using a Seahorse XF-24 extracellular flux analyzer (Seahorse Bioscience). Naïve CD4^+ T cells were sorted and activated with plate-bound CD3 and CD28 antibodies in complete medium or medium supplemented with 3 mM L-arginine. Four days later (in the morning), cells were pooled, carefully count and plated (7×10^5 cells/well) in serum-free unbuffered RPMI-1640 medium (Sigma) onto Seahorse cell plates coated with Cell-Tak (BD Bioscience). The serum-free unbuffered medium was not supplemented with L-arginine. Oligomycin (1.4 μM, Sigma), Carbonyl cyanide-4-(trifluoromethoxy)phenylhydrazone (FCCP, 0.6 μM, Sigma) and antimycin (1.4 μM, Sigma) were injected.

human naïve CD4+ T cells [1] = test: Cytokine analysis (IFN-gamma); type: cell-based
Experimental: 10^5 naïve T cells were stimulated with plate bound anti-CD3 (5 μg ml^−1) and anti-CD28 (1 μg ml^−1) in the presence of IL-12 (10 ng/ml, R&D Systems) to polarize cells towards a Th1 phenotype. After 48 h, cells were transferred into U-bottom plates and IL-2 (10 ng/ml, R&D Systems) was added. Three days later, supernatants were collected and interferon-γ was quantified using FlowCytomix assays (eBioscience). Samples were analyzed on a BD LSR Fortessa FACS instrument and quantification was performed with the FlowCytomix Pro 3.0 software. For re-stimulation, cells were cultured for 5 h in the presence of 0.2 μM phorbol 12-myristate 13-acetate (PMA) and 1 μg/ml ionomycin (both from Sigma).

human naïve CD4+ T cells [2] = test: CCR7 expression by flow cytometry; type: cell-based; conditions: day 10 after activation, L-arginine supplemented vs control cultures
Experimental: FIG. 4. L-arginine limits human T cell differentiation and endows cells with a high survival capacity in vitro. (A, B) Human naïve CD4^+ T cells were activated in L-Arg medium or Ctrl medium in the presence of 10 ng/ml IL-12. IFN-γ was quantified in culture supernatants after 5 days (A) or after re-activation for 5 h with PMA/Ionomycin (B); n=9 from three donors. (C) Naïve CD4^+ T cells were labeled with CellTrace Violet (CTV) and activated in L-Arg medium or Ctrl medium. On day 10, proliferating CTV^lo T cells were stained with an antibody to CCR7 and analyzed by flow cytometry; n=15 from three donors. (D) Naïve CD4^+ T cells were activated for 5 days in L-Arg or Ctrl medium in the presence of exogenous IL-2, washed extensively and cultured in Ctrl medium in the absence of IL-2. Shown is the percentage of living T cells as determined by Annexin V staining at different time points after IL-2 withdrawal. One representative experiment out of three performed. (E) Same experiment as in (D). Shown is the difference of living activated CD4^+ and CD8^+ T cells 5 days after withdrawal of IL-2; n=46, from sixteen donors (CD4^+ T cells); n=13, from four donors (CD8^+ T cells). […] (K) Effect of norNOHA and BEC on proliferation of CTV-labeled naïve T cells measured 72 h after activation. *p<0.05, **p<0.01, ***p<0.001, ****p<0.0001 (Student's t-test).

activated CD8+ T cells = test: IL-2 withdrawal assay and assessment of cell viability, CD8+ T cells; type: cell-based, human; conditions: L-arginine supplementation, 5 days after IL-2 withdrawal
OT-I T cells = test: Adoptive T cell transfer and survival experiment; type: in vivo; conditions: activated 4 days in L-Arg medium, transfer into Cd3e−/− mice
Experimental: CD90.1^+ CD45.1/2^+ OT-I cells were activated with plate-bound antibodies to CD3 and CD28 in control medium. OT-I cells with a different congenic marker (CD90.1^+ CD45.1^+) were activated in L-arginine-supplemented medium. At day 4, equal cell numbers were injected into the tail vein of Cd3e^−/− host mice. To study the expansion of OT-I effector cells, host mice were sacrificed after 1, 3, 6, and 10 days post transfer and CD90.1^+ OT-I T cells from lymphoid organs (spleen and lymph nodes) were enriched with anti-CD90.1 micro beads (Miltenyi Biotec), stained and analysed by FACS. The following monoclonal antibodies were used α-CD8α (53-6.7), α-CD44 (1M7), α-CD62L (MEL-14), α-CD90.1 (OX-7), α-CD90.2 (30-H12), α-CD45.1 (A20), α-CD45.2 (104).

B16.OVA melanoma = test: Tumor experiment: in vitro activation of T cells; type: in vivo, C57BL/6 mice; conditions: L-arginine-treated OT-I T cells transferred into B16 OVA tumor bearing mice
Experimental: B16-OVA melanoma cells were cultured in RPMI 1640 plus 10% FCS, 1% penicillin/streptomycin and 2 mM glutamine. Before injection into mice, cells were trypsinized and washed twice in PBS. Then, 5×10^5 cells were subcutaneously injected in the dorsal region of Wt C57BL/6 mice. Ten days post injection, 5×10^6 OT-I cells, that have been activated in vitro as described above, were injected into the tail vein of tumor-bearing mice. The size of tumors was measured in a blinded fashion using calipers.

## N=C(N)NCCC[C@H](N)C(=O)O [L-arginine]
Activated (96 h) T cells
  mitochondrial spare respiratory capacity (SRC): augmented
  oxygen consumption increase: 1.7 fold
Human naïve CD4+ T cells [1]; L-arginine-supplemented medium, 10 ng/ml IL-12, supernatants after 5 days
  IFN-gamma secretion: much less
Human naïve CD4+ T cells [1]; re-activation for 5 h with PMA/Ionomycin
  IFN-gamma secretion after re-activation: comparable amounts
Human naïve CD4+ T cells [2]
  fraction of proliferating CCR7+ T cells: higher fraction
Activated CD8+ T cells
  survival of activated CD8+ T cells in the absence of exogenous cytokines: significantly increased
OT-I T cells
  survival capacity of OT-I T cells in vivo: higher survival capacity
B16.OVA melanoma
  anti-tumor response: survival of mice: increased survival of mice
  anti-tumor response: tumor size: reduction of tumor size
